Test results: patent publication US10857110B2, “Antibacterial compounds” (CONSEJO NACIONAL DE INVESTIGACIONES CIENTÍFICAS Y TÉCNICAS …, priority 2016, dated 2020)
Values after ≈ are worked out from the molar mass of the structure shown. One block for each molecule: values may come before it.

Legend:
Assay in all cases: MIC/MBC antibiotic sensitivity (CLSI)
[1] = system: Achromobacter xylosaxidans (HNA001); assay type: cell-based, Achromobacter xylosoxidans; settings: Achromobacter xylosaxidans (HNA001); for MIC: read-out: MIC
Experimental: (§1) The new compounds of the invention were synthesized following the general method of preparation (Tetrahedron, 2001, 57, 1671-1675), from the reaction between an intermediary compound of the acyl thiourea and HgCl2 in presence of trimethylamine. The products were adequately characterized regarding its chemistry. The antibacterial activity of the new compounds was assayed against two Gram-positive reference strains: Staphylococcus aureus (ATCC6538) and Bacillus cereus (ATCC10876), a fermenting Gram-negative strain: Escherichia coli (ATCC25922), and 26 non-fermenting Gram-negative isolates, including 3 reference strains: Pseudomonas aeruginosa (PAO1), Bordetella bronchiseptica (9.73H+), and Inquilinus limosus (DSM16000), and 23 isolates recovered from patients suffering from cystic fibrosis, including one Achromobacter xylosoxidans isolate, and 22 isolates belonging to the Burkholderia cepacia complex. The later were selected because they presented resistance to a high number of antimicrobial compounds, among a panel of 125 clinical isolates previously analyzed for its resistance against 17 antimicrobial compounds (1,2). The antibiotic sensitivity studies were performed by applying two quantitative methods which allow to determine the minimum inhibitory concentration (MIC) and the minimum bactericidal concentration (MBC).
(§2) The compounds obtained in Examples 1 and 2 were assayed against 23 isolates recovered from the sputum of patients suffering from cystic fibrosis being treated at the Sor Maria Ludovica Children Hospital (La Plata, Buenos Aires, Argentina). Nineteen of these isolates were selected for being highly resistant to most of the antimicrobial agents of clinical use from a panel of 125 isolates previously characterized in Martina et al. (1). Reference strains were also included: Gram (+) bacteria: B. cereus and S. aureus, fermenting Gram (−) bacteria: E. coli, and non-fermenting Gram (−) bacteria: Inquilinus limosus (DSM16000), B. bronchiseptica, and Pseudomonas aeruginosa (PAO1). The antibiotic sensitivity studies were performed applying two quantitative methods which allow to determine the minimum inhibitory concentration (MIC) and the minimum bactericidal concentration (MBC) according to the criteria established by the Clinical and Laboratory Standards Institute (CLSI) (4). For comparative purposes, three antibiotics commonly used in the treatment of pulmonary infections in cystic fibrosis patients were included in the study: tobramycin, ceftazidime and meropenem.

B. cenacepacia (FQC2524) = assay type: cell-based, B. cenocepacia; settings: Burkholderia cenocepacia; for MIC: read-out: MIC
Experimental: as §1, §2

[2] = system: Burkholderia cenocepacia (CBC 036); assay type: cell-based; settings: Burkholderia cenocepacia (CBC 036); for MBC: read-out: MBC; for MIC: read-out: MIC
Experimental: as §1, §2

[3] = system: Pseudomonas aeruginosa (PAO1); assay type: cell-based; settings: Pseudomonas aeruginosa, P. aeruginosa (PAO1); for MBC: read-out: MBC; for MIC: read-out: MIC
Experimental: as §1, §2

[4] = system: Burkholderia cepacia (CBC 010); assay type: cell-based; settings: Burkholderia cepacia (CBC 010); for MIC: read-out: MIC
Experimental: as §1, §2

[5] = system: Burkholderia cenocepacia (CBC 029); assay type: cell-based; settings: Burkholderia cenocepacia (CBC 029); for MBC: read-out: MBC; for MIC: read-out: MIC
Experimental: as §1, §2

[6] = system: Burkholderia cenocepacia (CBC 023); assay type: cell-based; settings: Burkholderia cenocepacia (CBC 023); for MIC: read-out: MIC
Experimental: as §1, §2

[7] = system: Burkholderia multivorans (CBC 022); assay type: cell-based; settings: Burkholderia multivorans (CBC 022); for MIC: read-out: MIC
Experimental: as §1, §2

[8] = system: Burkholderia cenocepacia (CBC 024); assay type: cell-based; settings: Burkholderia cenocepacia (CBC 024); for MBC: read-out: MBC; for MIC: read-out: MIC
Experimental: as §1, §2

[9] = system: Burkholderia multivorans (CBC 018); assay type: cell-based; settings: Burkholderia multivorans (CBC 018); for MBC: read-out: MBC; for MIC: read-out: MIC
Experimental: as §1, §2

[10] = system: Burkholderia cenocepacia (CBC 035); assay type: cell-based; settings: Burkholderia cenocepacia (CBC 035); for MBC: read-out: MBC; for MIC: read-out: MIC
Experimental: as §1, §2

[11] = system: Burkholderia multivorans (CBC 019); assay type: cell-based; settings: Burkholderia multivorans (CBC 019); for MIC: read-out: MIC
Experimental: as §1, §2

B. contaminans (HNBC001) = assay type: cell-based; settings: for MIC: read-out: MIC
Experimental: as §1, §2

[12] = system: Burkholderia seminalis (CBC 042); assay type: cell-based; settings: Burkholderia seminalis (CBC 042); for MIC: read-out: MIC
Experimental: as §1, §2

[13] = system: Staphylococcus aureus (ATCC6538); assay type: cell-based; settings: for MBC / MIC: Staphylococcus aureus, S. aureus (ATCC6538); for MBC: read-out: MBC; for MIC: read-out: MIC; for Selectivity Index (SI): ratio IC50 (THP-I) / MIC against S. aureus
Experimental: as §1, §2

[14] = system: Burkholderia multivorans (CBC 020); assay type: cell-based; settings: Burkholderia multivorans (CBC 020); for MIC: read-out: MIC
Experimental: as §1, §2

[15] = system: Burkholderia multivorans (CBC 015); assay type: cell-based; settings: Burkholderia multivorans (CBC 015); for MBC: read-out: MBC; for MIC: read-out: MIC
Experimental: as §1, §2

[16] = system: Burkholderia seminalis (CBC 040); assay type: cell-based; settings: Burkholderia seminalis (CBC 040); for MIC: read-out: MIC
Experimental: as §1, §2

[17] = system: Burkholderia cenocepacia (CBC 033); assay type: cell-based; settings: Burkholderia cenocepacia (CBC 033); for MBC: read-out: MBC; for MIC: read-out: MIC
Experimental: as §1, §2

[18] = system: Burkholderia cenocepacia (CBC 032); assay type: cell-based; settings: Burkholderia cenocepacia (CBC 032); for MBC: read-out: MBC; for MIC: read-out: MIC
Experimental: as §1, §2

[19] = system: Bacillus cereus (ATCC10876); assay type: cell-based; settings: for MBC: read-out: MBC; for MIC: read-out: MIC
Experimental: as §1, §2

[20] = system: Inquilinus limosus (DSM16000); assay type: cell-based; settings: for MIC: read-out: MIC
Experimental: as §1, §2

[21] = system: Escherichia coli (ATCC25922); assay type: cell-based; settings: for MBC / MIC: Escherichia coli, E. coli (ATCC25922); for MBC: read-out: MBC; for MIC: read-out: MIC; for Selectivity Index (SI): ratio IC50 (THP-I) / MIC for E. coli
Experimental: as §1, §2

[22] = system: Burkholderia cenocepacia (CBC 031); assay type: cell-based; settings: Burkholderia cenocepacia (CBC 031); for MBC: read-out: MBC; for MIC: read-out: MIC
Experimental: as §1, §2

MIC [1]: < 0.48 µg/mL
MIC (B. cenacepacia (FQC2524)): 0.97 µg/mL (≈ 1.61 µM)
MIC [2]: 1.95 µg/mL (≈ 3.23 µM)
MIC [3]: 0.48 µg/mL (≈ 0.796 µM)
MIC [4]: 3.9 µg/mL (≈ 6.46 µM)
MIC [5]: 3.9 µg/mL (≈ 6.46 µM)
MIC [6]: 1.95 µg/mL (≈ 3.23 µM)
MIC [7]: 3.9 µg/mL (≈ 6.46 µM)
MIC [8]: 1.95 µg/mL (≈ 3.23 µM)
MIC [9]: 1.95 µg/mL (≈ 3.23 µM)
MIC [10]: 1.95 µg/mL (≈ 3.23 µM)
MIC [11]: 1.95 µg/mL (≈ 3.23 µM)
MIC (B. contaminans (HNBC001)): < 0.48 µg/mL
MIC [12]: 0.96 µg/mL (≈ 1.59 µM)
MIC [13]: 0.24 µg/mL (≈ 0.398 µM)
MIC [14]: 3.9 µg/mL (≈ 6.46 µM)
MIC [15]: 1.95 µg/mL (≈ 3.23 µM)
MIC [16]: 3.9 µg/mL (≈ 6.46 µM)
MIC [17]: 3.9 µg/mL (≈ 6.46 µM)
MIC [18]: 1.95 µg/mL (≈ 3.23 µM)
MIC [19]: 1.95 µg/mL (≈ 3.23 µM)
MIC [20]: 3.9 µg/mL (≈ 6.46 µM)
MIC [21]: 0.97 µg/mL (≈ 1.61 µM)
MIC [22]: 1.95 µg/mL (≈ 3.23 µM)
Compound: O=C(NC(=Nc1c(F)cc(F)cc1Br)Nc1c(F)cc(F)cc1Br)C12CC3CC(CC(C3)C1)C2 [H-BDF, N—(N,N′-bis(2-bromo-4,6-difluorophenyl)carbamimidoyl)adamantane-1-carboxamide]
MBC [1]: < 0.48 µg/mL
MBC (B. cenacepacia (FQC2524)): 3.9 µg/mL (≈ 6.46 µM)
MBC [2]: 7.81 µg/mL (≈ 12.9 µM)
MBC [3]: 3.9 µg/mL (≈ 6.46 µM)
MBC [4]: 7.81 µg/mL (≈ 12.9 µM)
MBC [5]: 15.6 µg/mL (≈ 25.9 µM)
MBC [6]: 3.9 µg/mL (≈ 6.46 µM)
MBC [7]: 7.8 µg/mL (≈ 12.9 µM)
MBC [8]: 7.81 µg/mL (≈ 12.9 µM)
MBC [9]: 7.81 µg/mL (≈ 12.9 µM)
MBC [10]: 3.9 µg/mL (≈ 6.46 µM)
MBC [11]: 7.81 µg/mL (≈ 12.9 µM)
MBC (B. contaminans (HNBC001)): 0.97 µg/mL (≈ 1.61 µM)
MBC [12]: 7.81 µg/mL (≈ 12.9 µM)
MBC [13]: 0.97 µg/mL (≈ 1.61 µM)
Selectivity Index (SI) [13]: 62
MBC [14]: 15.6 µg/mL (≈ 25.9 µM)
MBC [15]: 3.9 µg/mL (≈ 6.46 µM)
MBC [16]: 7.81 µg/mL (≈ 12.9 µM)
MBC [17]: 15.6 µg/mL (≈ 25.9 µM)
MBC [18]: 3.9 µg/mL (≈ 6.46 µM)
MBC [19]: 1.95 µg/mL (≈ 3.23 µM)
MBC [20]: 7.81 µg/mL (≈ 12.9 µM)
MBC [21]: 1.95 µg/mL (≈ 3.23 µM)
Selectivity Index (SI) [21]: 16
MBC [22]: 7.81 µg/mL (≈ 12.9 µM)

MIC [1]: 7.8 µg/mL (≈ 11.7 µM)
MIC (B. cenacepacia (FQC2524)): 15.6 µg/mL (≈ 23.5 µM)
MIC [2]: 66.4 µg/mL (≈ 100 µM)
MIC [3]: 33.2 µg/mL (≈ 50 µM)
MIC [4]: 133 µg/mL (≈ 200 µM)
MIC [5]: > 133 µg/mL
MIC [6]: 66.4 µg/mL (≈ 100 µM)
MIC [7]: 133 µg/mL (≈ 200 µM)
MIC [8]: 66.4 µg/mL (≈ 100 µM)
MIC [9]: 66.4 µg/mL (≈ 100 µM)
MIC [10]: 66.4 µg/mL (≈ 100 µM)
MIC [11]: 66.4 µg/mL (≈ 100 µM)
MIC (B. contaminans (HNBC001)): 15.6 µg/mL (≈ 23.5 µM)
MIC [12]: 33.2 µg/mL (≈ 50 µM)
MIC [13]: 7.81 µg/mL (≈ 11.8 µM)
MIC [14]: 66.4 µg/mL (≈ 100 µM)
MIC [15]: 66.4 µg/mL (≈ 100 µM)
MIC [16]: 61.2 µg/mL (≈ 92.2 µM)
MIC [17]: 133 µg/mL (≈ 200 µM)
MIC [18]: 31.2 µg/mL (≈ 47.1 µM)
MIC [19]: 66.4 µg/mL (≈ 100 µM)
MIC [20]: 61.2 µg/mL (≈ 92.2 µM)
MIC [21]: 66.4 µg/mL (≈ 100 µM)
MIC [22]: 31.2 µg/mL (≈ 47.1 µM)
Compound: O=C(NC(=Nc1c(Br)cc(F)cc1Br)Nc1c(F)cc(F)cc1Br)C12CC3CC(CC(C3)C1)C2 [H-DBF, N—(N-(2-bromo-4,6-difluorophenyl)-N′-(2,6-dibromo-4-fluorophenyl)carbamimidoyl) adamantane-1-carboxamide]
MBC [1]: 31.2 µg/mL (≈ 47.1 µM)
MBC (B. cenacepacia (FQC2524)): 31.2 µg/mL (≈ 47.1 µM)
MBC [2]: 132 µg/mL (≈ 199 µM)
MBC [3]: > 133 µg/mL
MBC [4]: > 132 µg/mL
MBC [5]: > 133 µg/mL
MBC [6]: 132 µg/mL (≈ 199 µM)
MBC [7]: > 133 µg/mL
MBC [8]: 132 µg/mL (≈ 199 µM)
MBC [9]: > 132 µg/mL
MBC [10]: 132 µg/mL (≈ 199 µM)
MBC [11]: 132 µg/mL (≈ 199 µM)
MBC (B. contaminans (HNBC001)): 31.2 µg/mL (≈ 47.1 µM)
MBC [12]: 66.4 µg/mL (≈ 100 µM)
MBC [13]: 66.4 µg/mL (≈ 100 µM)
Selectivity Index (SI) [13]: 17
MBC [14]: 133 µg/mL (≈ 200 µM)
MBC [15]: 132 µg/mL (≈ 199 µM)
MBC [16]: > 61.2 µg/mL
MBC [17]: > 133 µg/mL
MBC [18]: 62.5 µg/mL (≈ 94.1 µM)
MBC [19]: 66.4 µg/mL (≈ 100 µM)
MBC [21]: 66.4 µg/mL (≈ 100 µM)
Selectivity Index (SI) [21]: 2
MBC [22]: 62.5 µg/mL (≈ 94.1 µM)
